Source: patent US9757408B2 (Hayashibara Co., Ltd., priority 2010, dated 2017)
Marks after values point to notes of the source that are not given here.

Experiments:
[1] = system: IL-12 production from mouse intraperitoneal macrophages; assay: IC50 for IL-12 production from mouse macrophages, LPS + IFN-γ (Experiment 19); type: cell-based; details: for IC50: Mus musculus, Macrophage, 20 h, read-out: IC50 Concentration IL-12
Excerpt: After completion of the culture, the supernatant in each well was collected and assayed for cytokines and prostaglandin E2 (called “PGE2”, hereinafter) with ELISA.

[2] = system: mice with colitis induced by dextran sulfate sodium; assay: Dextran sulfate sodium colitis mice: diarrhea/hematochezia scores, DAI, haptoglobin (Experiment 13); type: in vivo, C57BL/6 mice; details: dextran sulfate sodium intake; for Content of haptoglobin: blood on 11th day
Description: Dextran sulfate sodium (commercialized by MP Biomedicals, CA, USA, molecular weight of 36,000 to 50,000) was dissolved in tap water, and all the mice of these five groups consisting of eight heads each were allowed to freely take the solution for five days (Experiment groups 2 to 5). […] The eight mice of the remaining one group were administered through a gastric tube with PBS once a day at a dose of 0.2 mL/head over 11 days from the day of initiating the administration of dextran sulfate sodium (Experiment group 2). The five mice of one group, which had not been administered with dextran sulfate sodium, were bred for 11 days on the normal feed while allowing them to take tap water freely (Experiment group 1).
The mice were weighed and their degree of diarrhea and hematochezia were macroscopically observed every day over 11 days from the day of initiating the intake of dextran sulfate sodium. The body weight reduction percentage (%) was determined by dividing the body weight of a mouse at 11th day after initiating the intake of dextran sulfate sodium by the body weight of the mouse at the day of initiating the intake, and multiplying the value by 100, and subtracting the resulting value from 100. The scores of diarrhea and hematochezia and the body weight reduction percentage (%) in each mouse were scored according to the criteria as shown in Table 13. For each group, the average of the total scores of diarrhea and hematochezia on days ranging from the day (intake day 0) of initiating the intake of dextran sulfate sodium to 11th day therefrom (intake day 10) are determined and shown in Table 14. The total scores of diarrhea, hematochezia, and body weight reduction percentage for each mouse at 11th day (intake day 10) after initiating the intake of dextran sulfate sodium are calculated for disease activity index (DAI) used as an index for colitis, averaged for each group, and shown in Table 14. On 11th day after initiating the intake of dextran sulfate sodium, each mouse was collected blood, followed by assaying haptoglobin or an acute phase protein, as an index for inflammatory, on an ELISA kit commercialized by Life Diagnostics USA, and averaging the data for each group. The results are in Table 14 in parallel. Since one mouse in Experiment group 2 administered with only dextran sulfate sodium was dead at 11th day after initiating the intake of dextran sulfate sodium, the results of Experiment group 2 at 11th day (intake day 10) after initiating the intake of dextran sulfate sodium represent the average of seven mice.

[3] = system: mouse with severe acute pancreatitis induced by choline-deficient ethionine-added feed; assay: Severe acute pancreatitis induced by choline-deficient ethionine-added feed, survival (Experiment 15); type: in vivo, CD1(ICR) mice
Excerpt: After seven days of a preliminary breeding, the mice were fasted for one day and allowed to freely take a choline-deficient ethionine-added feed, produced by Oriental Yeast Co., Ltd., Tokyo, Japan, for three days from the next day. Thereafter, the mice were fed on normal feed again and then fed on the choline-deficient ethionine-added feed. […] Eight mice in the remaining one group as a control were orally administered through a gastric tube with distilled water twice a day every morning and evening in a liquid volume of 0.2 mL/head/shot from the initiation of fasting. The survival number of mice in each group was macroscopically confirmed up to seven days from the initiation of taking the choline-deficient ethionine-added feed, and the survival rate (%) of mice in each group was determined. The survival rate (%) of mice was determined similarly as in Experiment 1.

[4] = system: IL-4 production of spleen cells; assay: IL-4 production of spleen cells stimulated with anti-CD3 antibody, from gel-treated mice (Experiment 16); type: in vivo, NC/Nga mice; details: for production level of IL-4 of spleen cells stimulated with the anti-CD3 antibody: compared to mice applied with gel prepared by adding refined water (Experiment group 1); for Content of IL-4: supernatant of spleen cells stimulated with anti-CD3 antibody; for Content of IL-4 / Ratio of IL-4/IFN-γ: picryl chloride-sensitized mice applied with gel; for Ratio of IL-4/IFN-γ: spleen cells stimulated with anti-CD3 antibody
Description: On Friday of the 6th week of the induction (46th day after initiating the application), all the mice were sacrificed, followed by isolating their spleens and collecting spleen cells in usual manner. […] To each well 2 μg/mL of “Purified Mouse CD3ε Monoclonal Antibody”, a product name of an anti-CD3 antibody, commercialized by Cosmo Bio Co., Ltd., Tokyo, Japan, was added, and the cells were incubated at 37° C. for three days in a 5% v/v CO2 incubator, followed by assaying the levels of cytokines in each supernatant thereof.
The results are in Table 19 in parallel.

[5] = 94 mg/kg orally once a day, day 0
[6] = oral 124 mg/kg body weight/shot twice a day
[7] = oral 46 mg/kg body weight/shot twice a day
[8] = oral 139 mg/kg body weight/shot twice a day

Structure (SMILES): Nc1ncnc2c1ncn2[C@@H]1O[C@H](CO)[C@@H](O)[C@H]1O [AN, adenosine]
- IC50 [1]: 14 µM
- Content of haptoglobin ([2]; 94 mg/kg orally once a day): 4.0 mg/mL
- Total scores of diarrhea and hematochezia, day 0 [2, 5]: 0
- Total scores of diarrhea and hematochezia, day 1 ([2]; 94 mg/kg orally once a day): 0
- Total scores of diarrhea and hematochezia, day 2 ([2]; 94 mg/kg orally once a day): 0
- Total scores of diarrhea and hematochezia, day 3 ([2]; 94 mg/kg orally once a day): 0.3
- Total scores of diarrhea and hematochezia, day 4 ([2]; 94 mg/kg orally once a day): 1.0
- Total scores of diarrhea and hematochezia, day 5 ([2]; 94 mg/kg orally once a day): 1.4
- Total scores of diarrhea and hematochezia, day 6 ([2]; 94 mg/kg orally once a day): 1.3
- Total scores of diarrhea and hematochezia, day 7 ([2]; 94 mg/kg orally once a day): 1.4
- Total scores of diarrhea and hematochezia, day 8 ([2]; 94 mg/kg orally once a day): 1.4
- Total scores of diarrhea and hematochezia, day 9 ([2]; 94 mg/kg orally once a day): 1.4
- DAI (total scores of diarrhea, hematochezia, and body weight reduction percentage), day 10 ([2]; 94 mg/kg orally once a day): 4.6
- Total scores of diarrhea and hematochezia, day 10 ([2]; 94 mg/kg orally once a day): 1.6
- Survival rate (%) of mice, 48 Hours [3, 6]: 100.0%
- Survival rate (%) of mice, 70 Hours [3, 6]: 20.0%
- Survival rate (%) of mice, 78 Hours [3, 6]: 50.0%
- Survival rate (%) of mice, 94 Hours [3, 6]: 25.0%
- Survival rate (%) of mice, 102 Hours [3, 6]: 12.5%
- Survival rate (%) of mice, 144 Hours [3, 6]: 12.5%
- production level of IL-4 of spleen cells stimulated with the anti-CD3 antibody [4]: showed no difference
- Content of IL-4 [4]: 9.8 ng/mL

Structure (SMILES): Nc1c2ncn([C@@H]3O[C@H](CO)[C@@H](O)[C@H]3O)c2nc[n+]1[O-] [ANO, adenosine N1-oxide]
- IC50 [1]: 1.4 µM
- inhibitory action on the production of IL-12 (in words) ([1]; mouse intraperitoneal macrophages stimulated with LPS and IFN-γ): showed an inhibitory action
- Content of haptoglobin ([2]; 33 mg/kg orally once a day): 3.7 mg/mL
- Total scores of diarrhea and hematochezia, day 0 ([2]; 33 mg/kg orally once a day, day 0 after initiating the intake): 0
- Total scores of diarrhea and hematochezia, day 1 ([2]; 33 mg/kg orally once a day): 0
- Total scores of diarrhea and hematochezia, day 2 ([2]; 33 mg/kg orally once a day): 0
- Total scores of diarrhea and hematochezia, day 3 ([2]; 33 mg/kg orally once a day): 0
- Total scores of diarrhea and hematochezia, day 4 ([2]; 33 mg/kg orally once a day): 0.3
- Total scores of diarrhea and hematochezia, day 5 ([2]; 33 mg/kg orally once a day): 0.3
- Total scores of diarrhea and hematochezia, day 6 ([2]; 33 mg/kg orally once a day): 0.5
- Total scores of diarrhea and hematochezia, day 7 ([2]; 33 mg/kg orally once a day): 0.6
- Total scores of diarrhea and hematochezia, day 8 ([2]; 33 mg/kg orally once a day): 0.9
- Total scores of diarrhea and hematochezia, day 9 ([2]; 33 mg/kg orally once a day): 0.8
- DAI (total scores of diarrhea, hematochezia, and body weight reduction percentage), day 10 ([2]; 33 mg/kg orally once a day): 3.8*
- Total scores of diarrhea and hematochezia, day 10 ([2]; 33 mg/kg orally once a day): 0.7
- Content of haptoglobin ([2]; 100 mg/kg orally once a day): 2.9* mg/mL
- Total scores of diarrhea and hematochezia, day 0 ([2]; 100 mg/kg orally once a day, day 0): 0
- Total scores of diarrhea and hematochezia, day 1 ([2]; 100 mg/kg orally once a day): 0
- Total scores of diarrhea and hematochezia, day 2 ([2]; 100 mg/kg orally once a day): 0
- Total scores of diarrhea and hematochezia, day 3 ([2]; 100 mg/kg orally once a day): 0.3
- Total scores of diarrhea and hematochezia, day 4 ([2]; 100 mg/kg orally once a day): 0.4
- Total scores of diarrhea and hematochezia, day 5 ([2]; 100 mg/kg orally once a day): 0.4
- Total scores of diarrhea and hematochezia, day 6 ([2]; 100 mg/kg orally once a day): 0.5
- Total scores of diarrhea and hematochezia, day 7 ([2]; 100 mg/kg orally once a day): 0.6
- Total scores of diarrhea and hematochezia, day 8 ([2]; 100 mg/kg orally once a day): 0.6
- Total scores of diarrhea and hematochezia, day 9 ([2]; 100 mg/kg orally once a day): 0.7
- DAI (total scores of diarrhea, hematochezia, and body weight reduction percentage), day 10 ([2]; 100 mg/kg orally once a day): 3.4**
- Total scores of diarrhea and hematochezia, day 10 ([2]; 100 mg/kg orally once a day): 0.6
- Survival rate (%) of mice, 48 Hours [3, 7]: 100.0%
- Survival rate (%) of mice, 70 Hours [3, 7]: 100.0%
- Survival rate (%) of mice, 78 Hours [3, 7]: 50.0%
- Survival rate (%) of mice, 94 Hours [3, 7]: 25.0%
- Survival rate (%) of mice, 102 Hours [3, 7]: 12.5%
- Survival rate (%) of mice, 144 Hours [3, 7]: 12.5%
- Survival rate (%) of mice, 48 Hours [3, 8]: 100.0%
- Survival rate (%) of mice, 70 Hours [3, 8]: 87.5%
- Survival rate (%) of mice, 78 Hours [3, 8]: 75.0%
- Survival rate (%) of mice, 94 Hours [3, 8]: 75.0%
- Survival rate (%) of mice, 102 Hours [3, 8]: 75.0%
- Survival rate (%) of mice, 144 Hours [3, 8]: 75.0%
- production level of IL-4 of spleen cells stimulated with the anti-CD3 antibody [4]: significantly lower
- production ratio of IL-4/IFN-γ of spleen cells stimulated with the anti-CD3 antibody ([4]; spleen cells of gel-treated mice): close to that of the mice of the normal group
- Ratio of IL-4/IFN-γ [4]: 0.32
- Content of IL-4 [4]: 2.8* ng/mL

Structure (SMILES): OC[C@H]1O[C@@H](n2cnc3c(O)ncnc32)[C@H](O)[C@@H]1O [IN, inosine]
- IC50 [1]: > 200 µM
- Content of haptoglobin ([2]; 94 mg/kg orally once a day): 3.9 mg/mL
- Total scores of diarrhea and hematochezia, day 0 [2, 5]: 0
- Total scores of diarrhea and hematochezia, day 1 ([2]; 94 mg/kg orally once a day): 0
- Total scores of diarrhea and hematochezia, day 2 ([2]; 94 mg/kg orally once a day): 0
- Total scores of diarrhea and hematochezia, day 3 ([2]; 94 mg/kg orally once a day): 0.1
- Total scores of diarrhea and hematochezia, day 4 ([2]; 94 mg/kg orally once a day): 0.8
- Total scores of diarrhea and hematochezia, day 5 ([2]; 94 mg/kg orally once a day): 1.1
- Total scores of diarrhea and hematochezia, day 6 ([2]; 94 mg/kg orally once a day): 1.2
- Total scores of diarrhea and hematochezia, day 7 ([2]; 94 mg/kg orally once a day): 1.1
- Total scores of diarrhea and hematochezia, day 8 ([2]; 94 mg/kg orally once a day): 1.2
- Total scores of diarrhea and hematochezia, day 9 ([2]; 94 mg/kg orally once a day): 1.2
- DAI (total scores of diarrhea, hematochezia, and body weight reduction percentage), day 10 ([2]; 94 mg/kg orally once a day): 4.1
- Total scores of diarrhea and hematochezia, day 10 ([2]; 94 mg/kg orally once a day): 1.3
- Survival rate (%) of mice, 48 Hours [3, 6]: 100.0%
- Survival rate (%) of mice, 70 Hours [3, 6]: 60.0%
- Survival rate (%) of mice, 78 Hours [3, 6]: 62.5%
- Survival rate (%) of mice, 94 Hours [3, 6]: 50.0%
- Survival rate (%) of mice, 102 Hours [3, 6]: 25.0%
- Survival rate (%) of mice, 144 Hours [3, 6]: 12.5%
- production level of IL-4 of spleen cells stimulated with the anti-CD3 antibody [4]: showed no difference
- Ratio of IL-4/IFN-γ [4]: 0.70
- Content of IL-4 [4]: 9.3 ng/mL
